Laboratory results taken from patent US11938136B2, “Compositions for treating spinal muscular atrophy” (Hoffmann-La Roche Inc., priority 2015, dated 2024).

Tests used:
SMNΔ7 mice = experiment: Survival and body weight of SMNΔ7 mice; assay type: in vivo, mouse
Procedure: FIG. 3. in vivo Effects of treatment SMNΔ7 mice with 7-(4,7-diazaspiro[2.5]octan-7-yl)-2-(2,8-dimethylimidazo[1,2-b]pyridazin-6-yl)pyrido[1,2-a]pyrimidin-4-one (Example 20). SMNΔ7 mice were treated with the compound of Example 20 from P3 onwards and animal survival (A) and body weight (B) were assessed daily until P100. Data represent means SEM of 10-12 mice per group. HET=heterozygous littermates.
Functional benefits were assessed in the severe and mild SMA mouse models. SMNΔ7 mice were treated from P3 to P23 once daily by IP injection of vehicle or the compound of Example 20, and from P24 onwards once daily by oral gavage. During the treatment period, body weight and animal survival were monitored. Over the 100-day observation period, only two heterozygous littermates died. In contrast, all vehicle-treated mice died before P21 with a median survival time (MST) of 10.5 days.

[1] = tested on: full length SMN2 minigene mRNA; experiment: SMN2 minigene mRNA splicing RT-qPCR assay in cultured cells; assay type: cell-based, human
Source text: The term “EC1.5x concentration for production of full length SMN2 minigene mRNA” (or “EC1.5x minigene”) is defined as that concentration of test compound that is effective in increasing the amount of full length SMN2 minigene mRNA to a level 1.5-fold greater relative to that in vehicle-treated cells.
The reverse transcription-quantitative PCR-based (RT-qPCR) assay is used to quantify the level of the full length SMN2 minigene (referred to herein by the term “FL SMN2mini”) mRNA containing SMN2 exon 7 in a HEK293H cell line stably transfected with said minigene and treated with a test compound. Materials used and respective sources are listed below in Table 1.
The SMN2-A minigene construct was prepared as described in International Patent Application WO2009/151546A1 page 145 paragraph [00400] to page 147 paragraph [00412](incl. FIG. 1 and FIG. 3 therein).
HEK293H cells stably transfected with the SMN2-A minigene construct (10,000 cells/well) are seeded in 200 μL of cell culture medium (DMEM plus 10% FBS, with 200 μg/mL hygromycin) in 96-well flat-bottom plates and the plate is immediately swirled to ensure proper dispersal of cells and the formation of an even monolayer of cells. Cells are allowed to attach for 6 hours. Test compounds are serially diluted 3.16-fold in 100% DMSO to generate a 7-point concentration curve. A solution of test compound (1 μL, 200× in DMSO) is added to each cell-containing well and the plate is incubated for 24 hours in a cell culture incubator (37° C., 5% CO2, 100% relative humidity). 2 replicates are prepared for each test compound concentration. The cells are then lysed in the Cells-To-Ct lysis buffer and the lysate is stored at −80° C.
Full length SMN2-A minigene and GAPDH mRNA are quantified using the primers and probes referenced in WO2014/209841A2 on page 80 in Table 1. Primer SMN Forward A (SEQ ID NO.1) hybridizes to a nucleotide sequence in exon 7 (nucleotide 22 to nucleotide 40), primer SMN Reverse A (SEQ ID NO.2) hybridizes to a nucleotide sequence in the coding sequence of Firefly luciferase, SMN Probe A (SEQ ID NO.3) hybridizes to a nucleotide sequence in exon 7 (nucleotide 50 to nucleotide 54) and exon 8 (nucleotide 1 to nucleotide 21). The combination of these three oligonucleotides detects only SMN1 or SMN2 minigenes (RT-qPCR) and will not detect endogenous SMN1 or SMN2 genes.
The SMN forward and reverse primers are used at final concentrations of 0.4 μM. The SMN probe is used at a final concentration of 0.15 μM. The GAPDH primers are used at final concentrations of 0.2 μM and the probe at 0.15 μM.
The SMN2-minigene GAPDH mix (15 μL total volume) is prepared by combining 7.5 μL of 2×RT-PCR buffer, 0.4 μL of 25×RT-PCR enzyme mix, 0.75 μL of 20×GAPDH primer-probe mix, 4.0075 μL of water, 2 μL of 10-fold diluted cell lysate, 0.06 μL of 100 μM SMN forward primer, 0.06 μL of 100 μM SMN reverse primer, and 0.225 μL of 100 μM SMN probe.
PCR is carried out at the following temperatures for the indicated time: Step 1: 48° C. (15 min); Step 2: 95° C. (10 min); Step 3: 95° C. (15 sec); Step 4: 60° C. (1 min); then repeat Steps 3 and 4 for a total of 40 cycles.
Each reaction mixture contains both SMN2-A minigene and GAPDH primers/probe sets (multiplex design), allowing simultaneous measurement of the levels of two transcripts.
The increase in the abundance of the FL SMN2mini mRNA relative to that in cells treated with vehicle control is determined from real-time PCR data using a modified ΔΔCt method (as described in Livak and Schmittgen, Methods, 2001, 25:402-8). The amplification efficiency E is calculated from the slope of the amplification curve for FL SMN2mini and GAPDH individually. The abundance of FL SMN2mini and GAPDH mRNA are then calculated as (1+E)^−Ct, where Ct is the threshold value for each amplicon. The abundance of FL SMN2mini mRNA is normalized to GAPDH mRNA abundance. […]

## Cc1cn2nc(-c3cc(=O)n4cc(N5CCNC6(CC6)C5)ccc4n3)cc(C)c2n1 [Example 20, 7-(4,7-diazaspiro[2.5]octan-7-yl)-2-(2,8-dimethylimidazo[1,2-b]pyridazin-6-yl)pyrido[1,2-a]pyrimidin-4-one]
SMNΔ7 mice; high dose
  recovery in body weight gain as compared to heterozygous littermates: 85%
SMNΔ7 mice; high dose: 3 mg/kg IP through P23 and 10 mg/kg PO thereafter
  animals surviving up to P100: 73%
SMNΔ7 mice; low dose
  correction of impaired body weight increase: only mildly corrected
SMNΔ7 mice; mid dose
  recovery in body weight gain as compared to heterozygous littermates: 71%
SMNΔ7 mice; mid dose: 0.3 mg/kg IP through P23 and 1 mg/kg PO thereafter
  animals surviving up to P100: 80%
SMNΔ7 mice; mid/high dose
  recovery in body weight gain as compared to heterozygous littermates: 82%
SMNΔ7 mice; mid/high dose: 1 mg/kg IP through P23 and 3 mg/kg PO thereafter
  animals surviving up to P100: 82%
[1]; Homo sapiens, HEK293-H, HEK293H cells stably transfected with SMN2-A minigene, 24 hours, 7-point concentration curve, read-out: EC1.5x minigene
  EC (1.5-fold increase): 0.0047 ± 0.0007 µM
[1]; cells expressing the SMN2 minigene
  maximum induction of SMN2 minigene full length mRNA: 20 fold
